# In US5449783A, “Diphenylthiazole derivative” (Hisamitsu Pharmaceutical Co., Inc., priority 1993, dated 1995):
# Key:
# prostaglandin synthetase = target: T1, prostaglandin synthetase (Ovis aries, UniProt P05979); experiment: Effect of inhibiting biosynthesis of prostaglandin E2; assay type: biochemical, sheep; conditions: 10^-7; 10 minutes incubation
# T1 construct: originating in sheep seminal vesicle; from tissue; host or cells: sheep seminal vesicle
# T1 sequence (P05979 25-600): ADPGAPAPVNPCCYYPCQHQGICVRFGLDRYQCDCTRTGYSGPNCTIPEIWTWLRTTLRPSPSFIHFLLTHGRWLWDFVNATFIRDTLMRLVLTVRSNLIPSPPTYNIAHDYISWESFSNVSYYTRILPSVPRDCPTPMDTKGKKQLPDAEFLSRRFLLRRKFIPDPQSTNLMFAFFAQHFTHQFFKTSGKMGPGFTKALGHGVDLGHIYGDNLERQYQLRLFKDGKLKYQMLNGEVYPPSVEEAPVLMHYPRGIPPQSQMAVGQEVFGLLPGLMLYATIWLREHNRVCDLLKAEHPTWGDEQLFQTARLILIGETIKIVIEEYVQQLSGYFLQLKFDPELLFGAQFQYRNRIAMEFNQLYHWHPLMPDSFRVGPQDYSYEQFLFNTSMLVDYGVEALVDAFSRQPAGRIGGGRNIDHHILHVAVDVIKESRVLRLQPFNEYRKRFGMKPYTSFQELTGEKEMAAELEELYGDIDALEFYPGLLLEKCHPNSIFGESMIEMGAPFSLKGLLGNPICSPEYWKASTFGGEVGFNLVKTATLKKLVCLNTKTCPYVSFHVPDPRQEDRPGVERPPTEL
# Experimental: (Effect of inhibiting biosynthesis of prostaglandin E2)
# To a tris buffer solution containing 50 mM of glutathione and 50 mM of epinephrine were added prostaglandin synthetase (originating in sheep seminal vesicle) and a test drug dissolved in DMSO and incubated for 10 minutes. Then the reaction was ceased with 1 N hydrochloric acid under ice-cooling and the reaction mixture was extracted with ethyl ether. Then the extract was solidified by drying with nitrogen gas, dissolved in ethanol and developed on a TLC with a developer. Then the aimed part was scraped up and the radioactivity was measured with a liquid scintillation counter.
# [1] = system: carrageenin-induced paw edema; experiment: Rat carrageenin-induced paw edema experiment A (oral); assay type: in vivo, Male Wistar rats; conditions: 10 mg/kg, 1 hour before carrageenin, 3 hours after induction
# Experimental: Rat (carrageenin-induced paw edema experiment A)
# Male Wistar rats weighing 140 to 160 g were divided into groups each comprising 8 animals.
# 0.1 ml of 1% carrageenin (PICNIN A, mfd. by Zushi Kagaku K.K.) was subcutaneously injected into the right hind paw of each rat and the edema thus induced was measured with the lapse of time by using a device for measuring foot edema. A test compound was suspended in a 0.5% CMC solution and orally administered to the rat 1 hour before the injection of carrageenin. The results expressed in the inhibition ratio (average) of each test group to the control group, to which no compound had been orally administered, 3 hours after the induction of the reaction are given in Table 2.
# [2] = system: acetic acid-induced writhing; experiment: Mouse acetic acid-induced writhing experiment; assay type: in vivo, Male ddy mice; conditions: oral, 20 mg/kg, 30 minutes before 0.6% acetic acid; writhing counted for 10 minutes
# Experimental: (Mouse acetic acid-induced writhing experiment)
# Male ddy mice weighing about 23 g were divided into groups each comprising 7 to 9 animals.
# 30 minutes after a test compound was orally administered, a 0.6% acetic acid solution in physiological saline was intraperitoneally administered in a dose of 0.1 ml per 10 g of the body weight. From 5 minutes after the intraperitoneal administration, the frequency of writhing was counted for 10 minutes to determine the inhibition ratio by comparing with the frequency of writhing in the control group.
# biosynthesis of 5-HETE = experiment: Effect of inhibiting biosynthesis of 5-HETE in neutrophiles; assay type: cell-based, Hartley guinea pigs; conditions: 10^-6; A 23187, 14C-arachidonic acid
# Experimental: (Effect of inhibiting biosynthesis of 5-HETE)
# Hartley guinea pigs weighing 300 to 500 g were used.
# 0.2% oyster glycogen was intraperitoneally administered to each guinea pig and, after 16 hours, neutrophiles of the animal were harvested. […] After ceasing the reaction with 1N hydrochloric acid under ice-cooling, the reaction mixture was extracted with ethyl acetate. Then the extract was solidified by drying with nitrogen gas, dissolved in ethanol and developed on a TLC with a developer. Then the aimed part was scraped up and the radioactivity was measured with a liquid scintillation counter.
# [3] = system: carrageenin-induced paw edema; experiment: Rat carrageenin-induced paw edema experiment B (intravenous); assay type: in vivo, Male Wistar rats; conditions: 1 mg/kg, immediately before carrageenin, 3 hours after induction
# Experimental: Rat (carrageenin-induced paw edema experiment B)
# 0.1 ml of 1% carrageenin (PICNIN A, mfd. by Zushi Kagaku K.K.) was subcutaneously injected into the right hind paw of each rat and the edema thus induced was measured with the lapse of time by using a device for measuring foot edema. A test compound was suspended in a 60% N,N-dimethylformamide solution in physiological saline and intravenously injected to the rat immediately before the injection of carrageenin.
# [4] = system: adjuvant arthritis (edema of the hind paw); experiment: Rat adjuvant arthritis experiment; assay type: in vivo, male Wistar rat; conditions: oral, 10 mg/kg once a day for 7 days
# Experimental: (Rat adjuvant arthritis experiment)
# 0.1 ml of 6 mg/ml Mycobacterium butyricum suspension in liquid paraffin was intracutaneously injected into the tail root of each male Wistar rat weighing about 200 g. 20 days thereafter, rats clearly suffering from arthritis in the hind paw were selected and divided into groups each comprising 7 animals.
# A test compound was orally administered in a dose as specified below once a day for 7 days. Then the effect of the test compound on the adjuvant arthritis was examined by using an inhibition ratio on the edema of the hind paw as an indicator. The inhibition ratio was calculated according to the following equation.
# [5] = system: carrageenin-induced paw edema; experiment: Rat carrageenin-induced paw edema experiment C (injected together with carrageenin into the paw); assay type: in vivo, Male Wistar rats; conditions: 3 hours after induction
# Experimental: Rat (carrageenin-induced paw edema experiment C)
# Male Wistar rats weighing 160 to 170 g were divided into groups each comprising 7 animals.
# 0.1 ml of 1% carrageenin (PICNIN A, mfd. by Zushi Kagaku K.K.) containing a test compound was subcutaneously injected into the right hind paw of each rat and the edema thus induced was measured with the lapse of time by using a device for measuring foot edema.
# platelet aggregation = conditions: as stated by prior reference A; cited from earlier work
# [6] = as stated by prior reference A; cited from earlier work
# [7] = as stated by prior reference A; cited from earlier work; remark: listed apart in the source
Inhibition ratio (prostaglandin synthetase),SMILES,Inhibition ratio [1],Inhibition ratio [2],Inhibition ratio (biosynthesis of 5-HETE),Inhibition ratio [3],Inhibition ratio [4],Inhibition ratio ([5]; 0.003 mg/kg),platelet aggregation inhibiting effect (in words) (platelet aggregation),antiinflammatory and analgesic effects (in words) [6],hypocholesterolemic effect (in words) [7],Inhibition ratio ([5]; 0.03 mg/kg)
43.9%,O=S(=O)(Nc1nc(-c2ccccc2)c(-c2ccc(F)cc2)s1)C(F)(F)F [Ex. 37],56.2%,18.1%,48.7%,46.4%,44.9%,49.8%,–,–,–,–
52.2%,COc1ccc(-c2sc(NS(=O)(=O)C(F)(F)F)nc2-c2ccccc2)cc1 [Ex. 32],52.3%,28.6%,44.8%,48.1%,34.6%,50.4%,–,–,–,–
57.2%,COc1ccc(-c2nc(NS(=O)(=O)C(F)(F)F)sc2-c2ccccc2)cc1 [Ex. 10],46.8%,46.1%,45.1%,52.8%,45.6%,50.7%,–,–,–,–
48.1%,O=[N+]([O-])c1ccc(-c2sc(NS(=O)(=O)C(F)(F)F)nc2-c2ccccc2)cc1 [Ex. 17],23.9%,36.3%,47.3%,36.6%,35.3%,37.1%,–,–,–,–
45.5%,"O=S(=O)(Nc1nc(-c2ccccc2)c(-c2ccccc2)s1)C(F)(F)F [Ex. 1, 2-trifluoromethanesulfonylamino-4,5-diphenylthlazole]",44.9%,24.6%,40.5%,41.3%,36.6%,44.2%,–,–,–,–

# Second part, the compound before the results:
SMILES,Inhibition ratio (prostaglandin synthetase),Inhibition ratio [1],Inhibition ratio [2],Inhibition ratio (biosynthesis of 5-HETE),Inhibition ratio [3],Inhibition ratio [4],Inhibition ratio ([5]; 0.003 mg/kg),platelet aggregation inhibiting effect (in words) (platelet aggregation),antiinflammatory and analgesic effects (in words) [6],hypocholesterolemic effect (in words) [7],Inhibition ratio ([5]; 0.03 mg/kg)
"CNc1nc(-c2ccccc2)c(-c2ccccc2)s1 [2-methylamino-4,5-diphenyl-thiazole]",–,–,–,–,–,–,–,platelet aggregation inhibiting effect,weak or scarcely any,hypocholesterolemic effect,–
"COc1ccc2c(c1)c(CC(=O)O)c(C)n2C(=O)c1ccc(Cl)cc1 [indomethacin, reference compound]",–,–,–,–,47.4%,–,–,–,–,–,44.7%
"c1ccc(-c2nc(N3CCOCC3)sc2-c2ccccc2)cc1 [2-morpholino-4,5-diphenylthiazole]",–,–,–,–,–,–,–,platelet aggregation inhibiting effect,weak or scarcely any,hypocholesterolemic effect,–
"CC(Cc1ccc(O)c(O)c1)C(C)Cc1ccc(O)c(O)c1 (centres unmarked) [NDGA, nordihydroguairetic acid, reference compound]",–,–,–,43.0%,–,–,–,–,–,–,–
"CC(=O)N(C)c1nc(-c2ccccc2)c(-c2ccccc2)s1 [2-(N-methyl-N-acetyl)amino-4,5-diphenylthiazole]",–,–,–,–,–,–,–,platelet aggregation inhibiting effect,weak or scarcely any,hypocholesterolemic effect,–
